Key:
FRDA lymphocytes [1] = test: Cellular ATP concentration assay (luciferin-luciferase); assay type: cell-based, Human; conditions: for activity at 1 µM / activity at 5 µM / activity at 20 µM: Homo sapiens, Lymphocyte, incubation 48 h, read-out: Total ATP level (% control) FRDA lymphocytes
FRDA lymphocytes [2] = test: Lipid peroxidation assay (C11-BODIPY 581/591, FACS); assay type: cell-based, Human; conditions: 5 mM DEM; for Suppression of lipid peroxidation, comparison of regioisomers (in words, FIG. 2): 0.1 μM (low concentration)
Method: The bar graph represents the percentage of the median mean fluorescence intensity of C11-BODIPY-green fluorescence relative to a treated control is shown. Data are expressed as the mean±SEM (n=3).
Human mitochondrial disease cell lines, Friedreich's ataxia lymphocytes (GM15850), and Leigh's syndrome lymphocytes (GM13740) were obtained from Coriell Cell Repositories (Camden, NJ). Lymphocytes were cultured in RPMI-1640 medium (Gibco, Life Technologies, Grand Island, NY) with 15% fetal calf serum, 2 mM glutamine (HyClone, South Logan, UT) and 1% penicillin-streptomycin antibiotic supplement (Cellgro, Manassas, VA). Cells were passaged every other day to maintain them in log phase growth and kept at a nominal concentration of 5-10×10^5 cell/mL. A CoQ10 deficient lymphocyte cell line (GM17932) was obtained from Coriell Cell Repositories. […]
Lipid peroxidation was measured by a quantitative FACS assay using the oxidation-sensitive fatty acid probe C11-BODIPY^581/591 (Molecular Probe) as described in art (Goldschmidt, R., et al. Bioorg. Med. Chem. 2013, 21, 969; Khdour, 0. M., et al. ACS Med. Chem. Lett. 2013, 4, 724; and Arce, P. M., et al. Bioorg. Med. Chem. 2012, 20, 5188). […] Cells were resuspended in phosphate buffered saline and were analyzed immediately by FACS (C6 Accuri, BD Biosciences, San Jose, CA), using a 488 nm excitation laser and the FL1-H channel 530±15 nm emission filter. The generation of lipid peroxide was detected as a result of the oxidation of the polyunsaturated butadienyl portion of the dye, resulting in a shift of the fluorescence emission peak from red to green. In each analysis, 10,000 events were recorded after cell debris were electronically gated out. […] Results were expressed as a percentage of the median mean fluorescence intensity of C11-BODIPY-green relative to the treated control (DEM).

[3] = In vitro microsomal stability assay; assay type: in vitro ADME; conditions: pH 7.4, bovine liver microsomes 1 mg/mL, 25 μM compound, 37° C., NADPH, read-out: Recovery (%) of compound after reaction with activated microsomes
Method: Liver tissues were diced into small pieces and then washed with isotonic sucrose buffer (0.25 M sucrose, 10 mM Tris-HCl, 0.5 mM EDTA, pH 7.8). The diced tissue was passed through a precooled meat grinder and mixed with three-fold ice cold sucrose buffer supplemented with a mixture of protease inhibitors. The suspension was homogenized in a Waring blender for 25 s at high speed. At this stage, the pH of the suspension was adjusted to 7.4 with 1 M Tris base. The homogenate was centrifuged for 20 min at 1200×g to remove cell debris. The supernatant suspension was homogenized in a tight fitting Teflon-glass Potter-Elvehjem homogenizer and then centrifuged twice at 10,000×g for 20 min, collecting the supernatant each time to remove mitochondria. The floating fat layer was carefully removed by filtering the supernatant through layers of cheesecloth. The supernatant was centrifuged at 150,000×g for 30 min (Beckman-Coulter ultracentrifuge, XL-100K-01, SW 55 Ti rotor). The pellet (microsomal fraction) was suspended in 0.25 M sucrose buffer containing 10 mM Tris-HCl, pH 7.4, with 20% (v/v) glycerol, and centrifuged once more at 150,000×g. The pellet was resuspended in sucrose buffer with 20% (v/v) glycerol. The protein concentration after resuspension was approximately 20 mg/mL, as determined by BCA protein assay (Pierce Chemical) using bovine serum albumin as a standard. Aliquots of microsomal suspensions were stored at −80° C.
In vitro metabolic stability was determined in bovine liver microsomes at a protein concentration of 1 mg/mL in 50 mM phosphate buffer mixture, pH 7.4, containing 5 mM MgCl2 in a final incubation volume of 0.5 mL. Each test compound was added to a final concentration of 25 μM. This mixture was pre-warmed to 37° C. prior to starting the reaction by the addition of β-NADPH to 1 mM final concentration. After incubation for 30 min at 37° C., the reaction was quenched by the addition of 1 mL of propanol, vortexed for 2 min and centrifuged at 15,000×g for 10 min to pellet the precipitated protein. The resulting supernatant was pipetted out and then concentrated under diminished pressure. A parallel incubation of the test compound with deactivated microsomes (quenched immediately with propanol) lacking β-NADPH served as a control and was run for each test agent to detect microsome-independent degradation. The sample was reconstituted in 130 μL MeOH and centrifuged again at 15,000×g for 3 min. The supernatant was removed and 4 μM fluorene was added as an internal standard before HPLC analysis. HPLC analyses were performed on a Zorbax SB-Phenyl reversed phase analytical (150×4.6 mm, 5 m) HPLC column using a mobile phase consisting of MeOH/H2O. A linear gradient of (50:50 MeOH/H2O→100:0 MeOH/H2O) was employed over a period of 14 min at a flow rate of 1 mL/min. Metabolic stability was expressed as percent of control remaining. The experiments were carried out in duplicate to verify the results.

FRDA lymphocytes [4] = test: Reactive oxygen species (ROS) assay (DCFH-DA, FACS); assay type: cell-based, Human; conditions: high concentration, 5 mM DEM
Method: The cells were stained with 2, 7-dichlorodihydrofluorescein diacetate (DCFH-DA) for 15 minutes prior to analysis. The samples were analyzed immediately by flow cytometry (C6 Accuri, BD Biosciences, San Jose, CA). The bar graph represents the percentage of the median mean fluorescence intensity of DCF fluorescence relative to a DEM-treated control. Data shown represent the mean±SEM of two different experiments run as duplicates.
Human mitochondrial disease cell lines, Friedreich's ataxia lymphocytes (GM15850), and Leigh's syndrome lymphocytes (GM13740) were obtained from Coriell Cell Repositories (Camden, NJ). […]
Quantitative analysis of intracellular ROS levels in FRDA lymphocytes, challenged with 5 mM diethyl maleate (DEM) in presence or absence of the test compounds, was obtained by FACS analysis using a dichlorodihydrofluorescein diacetate probe (DCFH-DA), as described in art (Goldschmidt, R., et al. Bioorg. Med Chem. 2013, 21, 969; Arce, P. M., et al. Bioorg. Med Chem. 2012, 20, 5188; Arce, P. M., et al. ACS Med Chem. Lett. 2011, 2, 608; Khdour, O. M., et al. Pharm. Res. 2011, 28, 2896; Lu, J., et al. Bioorg. Med Chem. 2010, 18, 7628; and Cai, X., et al. Bioorg. Med Chem. 2012, 20, 3584). […] The samples were analyzed immediately by flow cytometry (C6 Accuri, BD Biosciences, San Jose, CA), using a 488 nm excitation laser and the FL1-H channel 530±15 nm emission filter. […]

Row | Structure (SMILES) | recovery at 30 min, 25 μM [3] [%] | Inhibition of ATP production (in words) (FRDA lymphocytes [1]; 20 μM) | activity at 1 µM (FRDA lymphocytes [1]) [%] | activity at 5 µM (FRDA lymphocytes [1]) [%] | activity at 20 µM (FRDA lymphocytes [1]; 20 μM) [%] | Suppression of lipid peroxidation, comparison of regioisomers (in words, FIG. 2) (FRDA lymphocytes [2]) | Suppression of lipid peroxidation (in words, FIG. 2) (FRDA lymphocytes [2]; high concentration) | Suppression of ROS (in words, FIG. 3) (FRDA lymphocytes [4])
1 | CCCCCCCCCCCCCCCCc1nc(OC2CCC2)nc(N2CCC2)c1O [Compound 2c, 4-(Azetidin-1-yl)-2-cyclobutanoxy-6-hexadecylpyrimidin-5-ol] | 63 ± 9 | – | 102 ± 2 | 110 ± 4 | 99 ± 2 | better than 1c | – | –
2 | CCCCCCCCCCCCCCc1nc(N2CCC2)nc(OC2CCC2)c1O [Compound 1b, 2-(Azetidin-1-yl)-4-cyclobutanoxy-6-tetradecylpyrimidin-5-ol] | 63 ± 8 | – | 105 ± 3 | 102 ± 1 | 94 ± 2 | – | – | –
3 | Cc1nc(OC2CCC2)nc(N2CCC2)c1O [Compound 2a, 4-(Azetidin-1-yl)-2-cyclobutanoxy-6-methylpyrimidin-5-ol] | – | – | 101 ± 1 | 99 ± 3 | 96 ± 3 | – | – | –
4 | Cc1nc(OC2CCC2)nc(OC2CCC2)c1O [Compound 3a, 2,4-Dicyclobutanoxy-6-methylpyrimidin-5-ol] | – | – | 101 ± 1 | 99 ± 2 | 97 ± 3 | – | – | –
5 | Cc1nc(N2CCC2)nc(OC2CCC2)c1O [Compound 1a, 2-(Azetidin-1-yl)-4-cyclobutanoxy-6-methylpyrimidin-5-ol] | – | – | 100 ± 1 | 98 ± 1 | 96 ± 2 | – | – | –
6 | CCCCCCCCCCCCCCc1nc(OC2CCC2)nc(N2CCC2)c1O [Compound 2b, 4-(Azetidin-1-yl)-2-cyclobutanoxy-6-tetradecylpyrimidin-5-ol] | 77 | – | 109 ± 3 | 105 ± 2 | 54 ± 6 | significantly more efficient than 1b | – | –
7 | CCCCCCCCCCCCCCCCc1nc(N2CCC2)nc(OC2CCC2)c1O [Compound 1c, 2-(Azetidin-1-yl)-4-cyclobutoxy-6-hexadecylpyrimidin-5-ol] | 65 ± 8 | – | 100 ± 1 | 114 ± 3 | 103 ± 2 | – | – | –

The next lines start with results.

Row | recovery at 30 min, 25 μM [3] [%] | Inhibition of ATP production (in words) (FRDA lymphocytes [1]; 20 μM) | Structure (SMILES) | activity at 1 µM (FRDA lymphocytes [1]) [%] | activity at 5 µM (FRDA lymphocytes [1]) [%] | activity at 20 µM (FRDA lymphocytes [1]; 20 μM) [%] | Suppression of lipid peroxidation, comparison of regioisomers (in words, FIG. 2) (FRDA lymphocytes [2]) | Suppression of lipid peroxidation (in words, FIG. 2) (FRDA lymphocytes [2]; high concentration) | Suppression of ROS (in words, FIG. 3) (FRDA lymphocytes [4])
8 | 72 ± 3 | – | CCCCCCCCCCCCCCc1nc(OC2CCC2)nc(OC2CCC2)c1O [Compound 3b, 2,4-Dicyclobutanoxy-6-tetradecylpyrimidin-5-ol] | 99 ± 1 | 98 ± 2 | 94 ± 2 | – | slightly efficient | appeared to be efficient
9 | 63 ± 5 | – | CCCCCCCCCCCCCCc1nc(N2CCC2)nc(N2CCC2)c1O [Compound 4b, 2,4-Di-(azetidin-1-yl)-6-tetradecylpyrimidin-5-ol] | 86 ± 3 | 46 ± 7 | 1 | – | – | –
10 | 62 ± 3 | – | CCCCCCCCCCCCCCCCc1nc(N2CCC2)nc(N2CCC2)c1O [Compound 4c, 2,4-Di-(Azetidin-1-yl)-6-hexadecylpyrimidin-5-ol] | 92 ± 1 | 61 ± 9 | 1 ± 2 | – | – | –
11 | 60 ± 5 | – | CCCCCCCCCCCCCCCCc1nc(OC2CCC2)nc(OC2CCC2)c1O [Compound 3c, 2,4-Dicyclobutanoxy-6-hexadecylpyrimidin-5-ol] | 98 ± 2 | 102 ± 2 | 96 ± 2 | – | – | –
12 | – | this effect seems less obvious | Cc1nc(N2CCC2)nc(N2CCC2)c1O [Compound 4a, 2,4-Di-(azetidin-1-yl)-6-methylpyrimidin-5-ol] | 101 ± 2 | 101 ± 2 | 85 ± 9 | – | – | –

From patent publication US12595250B2, “Substituted pyrimidine compounds as multifunctional radical quenchers and their uses” (ARIZONA BOARD OF REGENTS ON BEHALF OF ARIZONA STATE …, priority 2016, dated 2026)
